According to PubChem BioAssay (NCI):
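Grown in 96-well plates, cells were treated for 48 hours with each compound at five concentrations. Insufficient inhibition: endpoint recorded as highest concentration tested. TGI marks complete inhibition of growth.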

Columns and labels:
Test in all cases: NCI anticancer screen, dose series, 48 h
DLD-1 colon = test system: DLD-1 colon
DMS 114 small cell lung = test system: DMS 114 small cell lung
HOP-18 NSCLC = test system: HOP-18 NSCLC
LXFL 529 NSCLC = test system: LXFL 529 NSCLC
M19-MEL melanoma = test system: M19-MEL melanoma
RXF-631 renal = test system: RXF-631 renal
SNB-78 CNS = test system: SNB-78 CNS
XF 498 CNS = test system: XF 498 CNS

| Compound | TGI (DLD-1 colon) [µM] | TGI (DMS 114 small cell lung) [µM] | TGI (HOP-18 NSCLC) [µM] | TGI (LXFL 529 NSCLC) [µM] | TGI (M19-MEL melanoma) [µM] | TGI (RXF-631 renal) [µM] | TGI (SNB-78 CNS) [µM] | TGI (XF 498 CNS) [µM] |
| --- | --- | --- | --- | --- | --- | --- | --- | --- |
| COC(=O)C12CC(C3CC31)C1CC12 (stereo not drawn) | > 100 | > 100 | > 100 | > 100 | > 100 | > 100 | – | – |
| CCOC(=O)CCC1(C(=O)OC)CCCC1=O (stereo not drawn) | > 100 | > 100 | > 100 | > 100 | > 100 | – | > 100 | > 100 |
| c1ccc2c(c1)CCCc1cc3ccccc3nc1-2 | > 100 | 75.1 | > 100 | > 100 | > 100 | – | > 100 | > 100 |
| c1ccc(C2=NN3CN(N2)c2ccccc2OCCCOc2ccccc23)cc1 | – | > 100 | – | > 100 | > 100 | – | > 100 | > 100 |
| CC1=NN(C(=O)CC(=O)Nc2cccc(Cl)c2)C(=O)C1N=Nc1ccc(S(N)(=O)=O)cc1 (stereo not drawn) | > 100 | > 100 | > 100 | > 100 | > 100 | – | > 100 | > 100 |
| CCCCN(CCCC)C(=NCc1ccccc1)NC#N | 47 | – | > 100 | 31.2 | 36.1 | – | 70.2 | – |
| C/C(=N\N(C)C)C(CN(C)C)C(c1ccccc1)c1c(O)c2ccccc2oc1=O (stereo not drawn) | > 100 | > 100 | – | > 100 | – | – | > 100 | > 100 |
| O=S1(=O)NNC(=NCc2ccc(F)cc2)c2ccccc21 | > 100 | – | – | > 100 | > 100 | – | > 100 | > 100 |
| O=c1[nH]c(=O)n(C2CC(O)C(CO)O2)cc1C#Cc1ccc(C(F)(F)F)cc1 (stereo not drawn) | > 100 | > 100 | > 100 | > 100 | – | > 100 | – | > 100 |
| Cc1ccc(S(=O)(=O)C(C#N)c2nc3ccccc3nc2-n2cccn2)cc1 (stereo not drawn) | > 100 | > 100 | > 100 | > 100 | > 100 | – | > 100 | > 100 |
| Brc1ccc2c(c1)C1(c3cc(Br)ccc3-2)c2cc(Br)ccc2-c2ccc(Br)cc21 | > 100 | > 100 | > 100 | > 100 | > 100 | > 100 | > 100 | > 100 |
| NC1=NS(=O)(=O)N=C(N)C1=Cc1ccc([N+](=O)[O-])o1 | 33.7 | 31.9 | 31.8 | 30.8 | 30 | – | 47.9 | 32.7 |
| Cc1nc2c(n1Cc1ccc(Cl)cc1)C(=O)c1ccccc1C2=O | > 75 | – | – | > 75 | > 75 | – | > 75 | > 75 |
| CC(C)(CN1CCCCC1)C(=O)CC(SCCS(=O)(=O)O)c1ccc(Br)cc1 (stereo not drawn) | 5.73 | 3.46 | 3.57 | 2.7 | 5.05 | – | 77.7 | 2.07 |
| O=C(c1cccs1)N(C(=S)N1CCN(c2ccccc2)CC1)c1ccccc1 | > 100 | > 100 | > 100 | > 100 | > 100 | – | > 100 | – |
